Measurements published in paper PMC5843811, “^44Sc for labeling of DOTA- and NODAGA-functionalized peptides: preclinical in vitro and in vivo investigations” (EJNMMI Radiopharmacy and Chemistry, 2016).
Like-named read-outs stand apart in the source and are kept apart here.

Columns and labels:
[1] = Biodistribution in U87MG tumor-bearing mice; format: in vivo; details: female, CD-1 nude (athymic nude), mouse, iv, total radioactivity, i.v. ~5 MBq (~1 nmol), mean ± SD; for tissue to tissue ratio at 0.5 h / tissue uptake at 0.5 h: 30 min p.i.; for tissue to tissue ratio at 5 h / tissue uptake at 5 h: 5 h p.i.
Description: Female athymic nude mice (CD-1 nude), age 5–6 weeks, were obtained from Charles River Laboratories, Sulzfeld, Germany. U87MG cells and AR42J-cells were suspended in PBS (5 × 10^6 cells in 100 μL) and subcutaneously inoculated on each shoulder. Two to three weeks later, when the tumor reached a size of about 300–500 mm^3, the mice were used for the in vivo studies.
Biodistribution studies were performed with U87MG tumor and AR42J tumor-bearing mice 2 weeks after tumor cell inoculation. ^44Sc- and ^68Ga-labeled peptides (~5 MBq, ~1 nmol per mouse) were intravenously injected in a volume of 100–200 μL. Mice were sacrificed at 30 min, 2 h and 5 h after injection (p.i.) of the ^44Sc-labeled peptides. Mice which were injected with ^68Ga-labeled peptides were sacrificed at 30 min and 2 h p.i. Selected tissues and organs were collected, weighed, and counted for radioactivity using a γ-counter (Wallac Wizard 1480, Perkin Elmer). The results were listed as a percentage of the injected activity per gram of tissue mass (% IA/g), using counts of a defined volume of the original injection solution counted at the same time. The data were analyzed for significance using a two-way ANOVA test (Graph Pad Prism 6 software, version 6.05). A p-value of < 0.05 was considered statistically significant.

U87MG tumor-bearing mice = experiment: PET/CT imaging of U87MG tumor-bearing mice; format: in vivo; details: 3 h after i.v. injection of ~10 MBq (~1 nmol), one or two mice
Description: The energy window was set to 150–650 keV. […] All static PET scans lasted for 20 min.

[2] = U87MG tumor / blood, n=3, read-out: Tumor-to-blood ratio
[3] = U87MG tumor / kidneys, n=3, read-out: Tumor-to-kidney ratio
[4] = U87MG tumor / liver, n=3, read-out: Tumor-to-liver ratio
[5] = U87MG tumor, n=3, read-out: Biodistribution, U87MG Tumor
[6] = blood, 5 MBq per mouse, n=3, read-out: Biodistribution, Blood
[7] = bone, 5 MBq per mouse, n=3, read-out: Biodistribution, Bone
[8] = brain, 5 MBq per mouse, n=3, read-out: Biodistribution, Brain
[9] = heart, 5 MBq per mouse, n=3, read-out: Biodistribution, Heart
[10] = intestines, 5 MBq per mouse, n=3, read-out: Biodistribution, Intestines
[11] = kidneys, n=3, read-out: Biodistribution, Kidneys
[12] = liver, n=3, read-out: Biodistribution, Liver
[13] = lung, 5 MBq per mouse, n=3, read-out: Biodistribution, Lung
[14] = muscle, 5 MBq per mouse, n=3, read-out: Biodistribution, Muscle
[15] = skin, 5 MBq per mouse, n=3, read-out: Biodistribution, Skin
[16] = spleen, 5 MBq per mouse, n=3, read-out: Biodistribution, Spleen
[17] = stomach, 5 MBq per mouse, n=3, read-out: Biodistribution, Stomach

SMILES: N=C(N)NCCC[C@@H]1NC(=O)[C@H](CCCCNC(=O)CCC(C(=O)O)N2CCN(CC(=O)O)CCN(CC(=O)O)CC2)NC(=O)[C@@H](Cc2ccc(O)cc2)NC(=O)[C@H](CC(=O)O)NC(=O)CNC1=O (some centres unmarked) [^44Sc-NODAGA-RGD, metal not drawn]
- tissue to tissue ratio at 0.5 h [1, 2]: 4.73 ± 1.24
- tissue to tissue ratio at 5 h [1, 2]: 30.5 ± 9.93
- tissue to tissue ratio at 0.5 h [1, 3]: 1.18 ± 0.28
- tissue to tissue ratio at 2 h ([1]; U87MG tumor / kidneys, 2 h p.i., n=3, read-out: Tumor-to-kidney ratio): 2.68 ± 0.14
- tissue to tissue ratio at 5 h [1, 3]: 2.58 ± 0.24
- tissue to tissue ratio at 0.5 h [1, 4]: 3.02 ± 0.4
- tissue to tissue ratio at 5 h [1, 4]: 2.82 ± 0.21
- tissue uptake at 0.5 h [1, 5]: 4.5 ± 0.77 %ID/g
- tissue uptake at 5 h [1, 5]: 3.01 ± 0.55 %ID/g
- tissue uptake at 0.5 h [1, 6]: 0.98 ± 0.21 %ID/g
- tissue uptake at 5 h [1, 6]: 0.11 ± 0.07 %ID/g
- tissue uptake at 0.5 h [1, 7]: 1.53 ± 0.16 %ID/g
- tissue uptake at 5 h [1, 7]: 0.76 ± 0.03 %ID/g
- tissue uptake at 0.5 h [1, 8]: 0.1 ± 0.01 %ID/g
- tissue uptake at 5 h [1, 8]: 0.06 ± 0.01 %ID/g
- tissue uptake at 0.5 h [1, 9]: 0.89 ± 0.13 %ID/g
- tissue uptake at 2 h ([1]; heart, 5 MBq per mouse, 2 h p.i., n=3, read-out: Biodistribution, Heart): 0.44 ± 0.04 %ID/g
- tissue uptake at 5 h [1, 9]: 0.35 ± 0.13 %ID/g
- tissue uptake at 0.5 h [1, 10]: 1.76 ± 0.22 %ID/g
- tissue uptake at 2 h ([1]; intestines, 5 MBq per mouse, 2 h p.i., n=3, read-out: Biodistribution, Intestines): 0.91 ± 0.16 %ID/g
- tissue uptake at 5 h [1, 10]: 0.75 ± 0.13 %ID/g
- tissue uptake at 2 h ([1]; kidneys, 5 MBq per mouse, 2 h p.i., n=3, read-out: Biodistribution, Kidneys): 1.5 ± 0.3 %ID/g
- tissue uptake at 0.5 h [1, 11]: 3.89 ± 0.68 %ID/g
- tissue uptake at 5 h [1, 11]: < 2 %ID/g
- tissue uptake at 0.5 h [1, 12]: 1.49 ± 0.06 %ID/g
- tissue uptake at 2 h ([1]; liver, 2 h p.i., n=3, read-out: Biodistribution, Liver): 1.34 ± 0.27 %ID/g
- tissue uptake at 5 h [1, 12]: ~1 %ID/g
- tissue uptake at 0.5 h [1, 13]: 2.2 ± 0.68 %ID/g
- tissue uptake at 5 h [1, 13]: 0.65 ± 0.16 %ID/g
- tissue uptake at 0.5 h [1, 14]: 0.68 ± 0.03 %ID/g
- tissue uptake at 5 h [1, 14]: 0.3 ± 0.06 %ID/g
- tissue uptake at 2 h ([1]; pancreas, 5 MBq per mouse, 2 h p.i., n=3, read-out: Biodistribution, pancreas): 0.43 ± 0.04 %ID/g
- tissue uptake at 5 h ([1]; pancreas, 5 MBq per mouse, n=3, read-out: Biodistribution, pancreas): 0.37 ± 0.07 %ID/g
- tissue uptake at 0.5 h ([1]; pancreas, n=3, read-out: Biodistribution, pancreas): 0.73 ± 0.22 %ID/g
- tissue uptake at 0.5 h [1, 15]: 1.97 ± 0.17 %ID/g
- tissue uptake at 2 h ([1]; skin, 5 MBq per mouse, 2 h p.i., n=3, read-out: Biodistribution, Skin): 1.3 ± 0.13 %ID/g
- tissue uptake at 5 h [1, 15]: 1.21 ± 0.34 %ID/g
- tissue uptake at 0.5 h [1, 16]: 1.63 ± 0.21 %ID/g
- tissue uptake at 2 h ([1]; spleen, 5 MBq per mouse, 2 h p.i., n=3, read-out: Biodistribution, Spleen): 1.58 ± 0.31 %ID/g
- tissue uptake at 5 h [1, 16]: 0.95 ± 0.19 %ID/g
- tissue uptake at 0.5 h [1, 17]: 1.69 ± 0.16 %ID/g
- tissue uptake at 2 h ([1]; stomach, 5 MBq per mouse, 2 h p.i., n=3, read-out: Biodistribution, Stomach): 1.01 ± 0.32 %ID/g
- tissue uptake at 5 h [1, 17]: 0.8 ± 0.03 %ID/g
- PET/CT distribution of radioactivity (in words) (U87MG tumor-bearing mice): comparable to ^68Ga-NODAGA-RGD but showed somewhat more background activity in the abdominal tract
